Experimental data published in ChEMBL document CHEMBL1128559, “Inhibition of the oncogene product p185erbB-2 in vitro and in vivo by geldanamycin and dihydrogeldanamycin derivatives” (J Med Chem, 1995).
pIC50: −log10 of the molar value.

What follows are compounds tested on SK-BR-3 (assay: Inhibition of oncogene product p185 erbB-2 from human breast cancer cells(SK-BR-3 cells).).
Work on COC1c2cc(O)cc(c2O)NC(=O)/C(C)=C/C=C\[C@H](OC)[C@@H](OC(N)=O)/C(C)=C/[C@H](C)[C@@H](O)[C@@H](OC)C[C@@H]1C (some centres not stated) yielded a pIC50 of 5.96. CO[C@H]1/C=C\C=C(/C)C(=O)NC2=CC(=O)C(NCCS)=C(C[C@@H](C)C[C@H](OC)[C@H](O)[C@@H](C)/C=C(\C)[C@@H]1OC(N)=O)C2=O showed a pIC50 of 6.77. Compound CO[C@H]1/C=C\C=C(/C)C(=O)NC2=CC(=O)C(N3CCCC3C(=O)O)=C(C[C@@H](C)C[C@H](OC)[C@H](O)[C@@H](C)/C=C(\C)[C@@H]1OC(N)=O)C2=O (some centres not stated) has a pIC50 of 6.10. COC1c2cc(O)cc(c2O)NC(=O)/C(C)=C/C=C\[C@H](OC)[C@@H](OC(N)=O)/C(C)=C/[C@H](C)[C@@H](OC)[C@@H](OC)C[C@@H]1C (some centres not stated) gave a pIC50 of 6.28. In the case of CO[C@H]1/C=C\C=C(/C)C(=O)NC2=CC(=O)C(NCCCO)=C(C[C@@H](C)C[C@H](OC)[C@H](O)[C@@H](C)/C=C(\C)[C@@H]1OC(N)=O)C2=O, the pIC50 was 6.89. CO[C@H]1/C=C\C=C(/C)C(=O)NC2=CC(=O)C(NCC3CCNCC3)=C(C[C@@H](C)C[C@H](OC)[C@H](O)[C@@H](C)/C=C(\C)[C@@H]1OC(N)=O)C2=O was tested, and the pIC50 was less than 5.51. COc1c(O)cc2c(O)c1C[C@@H](C)C[C@H](OC)[C@H](O)[C@@H](C)/C=C(\C)[C@H](OC(N)=O)[C@@H](OC)/C=C\C=C(/C)C(=O)N2 was tested, and the pIC50 was 7.00. With CO[C@H]1/C=C\C=C(/C)C(=O)NC2=CC3=NC(/N=C(\N)N4CCOCC4)=NC3=C(C[C@@H](C)C[C@H](OC)[C@H](O)[C@@H](C)/C=C(\C)[C@@H]1OC(N)=O)C2=O the pIC50 was 5.69. COC1=C2C[C@@H](C)C[C@H](OC)[C@H](O)[C@@H](C)/C=C(\C)[C@H](OC(N)=O)[C@@H](OC)/C=C\C=C(/C)C3=NC(=C(C1=O)C(NC(C)(C)C)O3)C2=O (some centres not stated) gave a pIC50 of less than 5.51. Compound CO[C@H]1/C=C\C=C(/C)C(=O)NC2=CC3=NC(/N=C(\N)N4CCC(C)CC4)=NC3=C(C[C@@H](C)C[C@H](OC)[C@H](O)[C@@H](C)/C=C(\C)[C@@H]1OC(N)=O)C2=O has a pIC50 of 6.82. COC1=C2C[C@@H](C)C[C@H](OC)[C@H](O)[C@@H](C)/C=C(\C)[C@H](OC(N)=O)[C@@H](OC)/C=C\C=C(/C)C(=O)NC(=C(/C=N/N3CCN(C)CC3)C1=O)C2=O gave a pIC50 of less than 5.54. For CO[C@H]1/C=C\C=C(/C)C(=O)NC2=CC(=O)C(NCCCN(C)C)=C(C[C@@H](C)C[C@H](OC)[C@H](O)[C@@H](C)/C=C(\C)[C@@H]1OC(N)=O)C2=O, the pIC50 was 6.85. COC1=C2C[C@@H](C)C[C@H](OC)[C@H](O)[C@@H](C)/C=C(\C)[C@H](OC(N)=O)[C@@H](OC)CC/C=C(\C)C(=O)NC(=CC1=O)C2=O gave a pIC50 of 6.64. Work on CO[C@H]1/C=C\C=C(/C)C(=O)NC2=CC(=O)C(N3CC(O)C3)=C(C[C@@H](C)C[C@H](OC)[C@H](O)[C@@H](C)/C=C(\C)[C@@H]1OC(N)=O)C2=O yielded a pIC50 of 7.30. Compound CO[C@H]1/C=C\C=C(/C)C(=O)NC2=CC3=NCCCNC3=C(C[C@@H](C)C[C@H](OC)[C@H](O)[C@@H](C)/C=C(\C)[C@@H]1OC(N)=O)C2=O has a pIC50 of 6.59. CO[C@H]1/C=C\C=C(/C)C(=O)NC2=CC(=O)C(NCCNC(C)=O)=C(C[C@@H](C)C[C@H](OC)[C@H](O)[C@@H](C)/C=C(\C)[C@@H]1OC(N)=O)C2=O showed a pIC50 of 5.90. Compound CO[C@H]1/C=C\C=C(/C)C(=O)NC2=CC(=O)C(Nc3nccs3)=C(C[C@@H](C)C[C@H](OC)[C@H](O)[C@@H](C)/C=C(\C)[C@@H]1OC(N)=O)C2=O has a pIC50 of 6.66. For CO[C@H]1/C=C\C=C(/C)C(=O)NC2=CC(=O)C(N[C@@H](C)CO)=C(C[C@@H](C)C[C@H](OC)[C@H](O)[C@@H](C)/C=C(\C)[C@@H]1OC(N)=O)C2=O, the pIC50 was 6.74. In the case of COC1=C2C[C@@H](C)C[C@H](OC)[C@H](O)[C@@H](C)/C=C(\C)[C@H](OC(N)=O)[C@@H](OC)/C=C\C=C(/C)C(=O)NC(=C(Br)C1=O)C2=O, the pIC50 was less than 5.50. CO[C@H]1/C=C\C=C(/C)C(=O)NC2=CC(=O)C(NC3CN4CCC3CC4)=C(C[C@@H](C)C[C@H](OC)[C@H](O)[C@@H](C)/C=C(\C)[C@@H]1OC(N)=O)C2=O (some centres not stated) gave a pIC50 of 5.86. CO[C@H]1/C=C\C=C(/C)C(=O)Nc2cc3nc4ccccc4oc-3c(c2=O)C[C@@H](C)C[C@H](OC)[C@H](O)[C@@H](C)/C=C(\C)[C@@H]1OC(N)=O showed a pIC50 of 6.38. CO[C@H]1/C=C\C=C(/C)C(=O)NC2=CC(=O)C(NCCC(=O)O)=C(C[C@@H](C)C[C@H](OC)[C@H](O)[C@@H](C)/C=C(\C)[C@@H]1OC(N)=O)C2=O gave a pIC50 of 6.72. For CO[C@H]1/C=C\C=C(/C)C(=O)NC2=CC(=O)C(NCCO)=C(C[C@@H](C)C[C@H](OC)[C@H](O)[C@@H](C)/C=C(\C)[C@@H]1OC(N)=O)C2=O, the pIC50 was 7.00. CO[C@H]1/C=C\C=C(/C)C(=O)NC2=CC(=O)C(N[C@H](C)CO)=C(C[C@@H](C)C[C@H](OC)[C@H](O)[C@@H](C)/C=C(\C)[C@@H]1OC(N)=O)C2=O gave a pIC50 of 6.48. Work on CO[C@H]1/C=C\C=C(/C)C(=O)NC2=CC(=O)C(NC(C)(C)C)=C(C[C@@H](C)C[C@H](OC)[C@H](O)[C@@H](C)/C=C(\C)[C@@H]1OC(N)=O)C2=O yielded a pIC50 of 6.70. Work on CO[C@H]1/C=C\C=C(/C)C(=O)NC2=CC(=O)C(N=C(N(C)C)N(C)C)=C(C[C@@H](C)C[C@H](OC)[C@H](O)[C@@H](C)/C=C(\C)[C@@H]1OC(N)=O)C2=O yielded a pIC50 of 6.77. COCCNC1=C2C[C@@H](C)C[C@H](OC)[C@H](O)[C@@H](C)/C=C(\C)[C@H](OC(N)=O)[C@@H](OC)/C=C\C=C(/C)C(=O)NC(=CC1=O)C2=O gave a pIC50 of 7.18. CO[C@H]1/C=C\C=C(/C)C(=O)NC2=CC(=O)C(NCCCI)=C(C[C@@H](C)C[C@H](OC)[C@H](O)[C@@H](C)/C=C(\C)[C@@H]1OC(N)=O)C2=O was tested, and the pIC50 was 6.96. Compound CO[C@H]1/C=C\C=C(/C)C(=O)NC2=CC(=O)C(NCC(O)CO)=C(C[C@@H](C)C[C@H](OC)[C@H](O)[C@@H](C)/C=C(\C)[C@@H]1OC(N)=O)C2=O (some centres not stated) has a pIC50 of 6.01. Work on CNC1=C2C[C@@H](C)C[C@H](OC)[C@H](O)[C@@H](C)/C=C(\C)[C@H](OC(N)=O)[C@@H](OC)/C=C\C=C(/C)C(=O)NC(=CC1=O)C2=O yielded a pIC50 of 7.05. CO[C@H]1/C=C\C=C(/C)C(=O)NC2=CC(=O)C(NC[C@@H](C)O)=C(C[C@@H](C)C[C@H](OC)[C@H](O)[C@@H](C)/C=C(\C)[C@@H]1OC(N)=O)C2=O gave a pIC50 of 6.59. With COC1=C2C[C@@H](C)C[C@H](OC)[C@H](O)[C@@H](C)/C=C(\C)[C@H](OC(N)=O)[C@@H](OC)/C=C\C=C(/C)C(=O)NC(=C(N3C=CC=CC=C3)C1=O)C2=O the pIC50 was 5.82. Compound CO[C@H]1C[C@H](C)CC2=C(N3CC(N)C3)C(=O)C=C(NC(=O)/C(C)=C/CC[C@H](OC)[C@@H](OC(N)=O)/C(C)=C/[C@H](C)[C@H]1O)C2=O has a pIC50 of 7.18. With COC1=C2C[C@@H](C)C[C@H](OC)[C@H](O)[C@@H](C)/C=C(\C)[C@H](OC(N)=O)[C@@H](OC)/C=C\C=C(/C)C(=O)N3CN(C(C)(C)C)CC(=C3C2=O)C1=O the pIC50 was less than 5.52. Work on C=CCNC1=C2C[C@@H](C)C[C@H](OC)[C@H](O)[C@@H](C)/C=C(\C)[C@H](OC(N)=O)[C@@H](OC)CC/C=C(\C)C(=O)NC(=CC1=O)C2=O yielded a pIC50 of 7.29. CO[C@H]1C[C@H](C)CC2=C(NCCC(=O)O)C(=O)C=C(NC(=O)/C(C)=C/CC[C@H](OC)[C@@H](OC(N)=O)/C(C)=C/[C@H](C)[C@H]1O)C2=O showed a pIC50 of less than 5.49. Compound CO[C@H]1/C=C\C=C(/C)C(=O)NC2=CC(=O)C(NCCS(=O)(=O)O)=C(C[C@@H](C)C[C@H](OC)[C@H](O)[C@@H](C)/C=C(\C)[C@@H]1OC(N)=O)C2=O has a pIC50 of less than 5.57. C#CCNC1=C2C[C@@H](C)C[C@H](OC)[C@H](O)[C@@H](C)/C=C(\C)[C@H](OC(N)=O)[C@@H](OC)/C=C\C=C(/C)C(=O)NC(=CC1=O)C2=O gave a pIC50 of 7.59. With CO[C@H]1C[C@H](C)CC2=C(NCCSC)C(=O)C=C(NC(=O)/C(C)=C/CC[C@H](OC)[C@@H](OC(N)=O)/C(C)=C/[C@H](C)[C@H]1O)C2=O the pIC50 was 6.85. Compound CO[C@H]1/C=C\C=C(/C)C(=O)NC2=CC(=O)C(NCCCN)=C(C[C@@H](C)C[C@H](OC)[C@H](O)[C@@H](C)/C=C(\C)[C@@H]1OC(N)=O)C2=O has a pIC50 of 7.10. In the case of CO[C@H]1/C=C\C=C(/C)C(=O)NC2=CC(=O)C(NCCSC)=C(C[C@@H](C)C[C@H](OC)[C@H](O)[C@@H](C)/C=C(\C)[C@@H]1OC(N)=O)C2=O, the pIC50 was 7.01. Work on CO[C@H]1/C=C\C=C(/C)C(=O)NC2=CC(=O)C(NCCc3ccco3)=C(C[C@@H](C)C[C@H](OC)[C@H](O)[C@@H](C)/C=C(\C)[C@@H]1OC(N)=O)C2=O yielded a pIC50 of 6.49. With COC(CNC1=C2C[C@@H](C)C[C@H](OC)[C@H](O)[C@@H](C)/C=C(\C)[C@H](OC(N)=O)[C@@H](OC)/C=C\C=C(/C)C(=O)NC(=CC1=O)C2=O)OC the pIC50 was 6.15. Compound CO[C@H]1/C=C\C=C(/C)C(=O)NC2=CC(=O)C(NCc3ccccc3)=C(C[C@@H](C)C[C@H](OC)[C@H](O)[C@@H](C)/C=C(\C)[C@@H]1OC(N)=O)C2=O has a pIC50 of 6.10. Work on CO[C@H]1C[C@H](C)CC2=C(NC(C)C)C(=O)C=C(NC(=O)/C(C)=C/CC[C@H](OC)[C@@H](OC(N)=O)/C(C)=C/[C@H](C)[C@H]1O)C2=O yielded a pIC50 of 6.33. CO[C@H]1/C=C\C=C(/C)C(=O)NC2=C(NCCCN(C)C)C(=O)C(NCCCN(C)C)=C(C[C@@H](C)C[C@H](OC)[C@H](O)[C@@H](C)/C=C(\C)[C@@H]1OC(N)=O)C2=O showed a pIC50 of less than 5.39. Compound CO[C@H]1/C=C\C=C(/C)C(=O)NC2=CC(=O)C(NC3CC3)=C(C[C@@H](C)C[C@H](OC)[C@H](O)[C@@H](C)/C=C(\C)[C@@H]1OC(N)=O)C2=O has a pIC50 of 7.37. With CO[C@H]1C[C@H](C)CC2=C3N=C(/N=C(\N)N4CCC4)N=C3C=C(NC(=O)/C(C)=C/CC[C@H](OC)[C@@H](OC(N)=O)/C(C)=C/[C@H](C)[C@H]1O)C2=O the pIC50 was 6.01. Compound COC1=C2C[C@@H](C)C[C@H](OC)[C@H](O)[C@@H](C)/C=C(\C)[C@H](OC(N)=O)[C@@H](OC)/C=C\C=C(/C)C(=O)NC(=C(NC3CC3)C1=O)C2=O has a pIC50 of less than 5.49. CO[C@H]1/C=C\C=C(/C)C(=O)Nc2cc3nc4ccccc4nc3c(c2O)C[C@@H](C)C[C@H](OC)[C@H](O)[C@@H](C)/C=C(\C)[C@@H]1OC(N)=O gave a pIC50 of less than 5.49. In the case of CO[C@H]1/C=C\C=C(/C)C(=O)NC2=CC(=O)C(NCCCn3ccnc3)=C(C[C@@H](C)C[C@H](OC)[C@H](O)[C@@H](C)/C=C(\C)[C@@H]1OC(N)=O)C2=O, the pIC50 was 6.04. For CO[C@H]1/C=C\C=C(/C)C(=O)NC2=CC(=O)C(N3CC(CO)C3)=C(C[C@@H](C)C[C@H](OC)[C@H](O)[C@@H](C)/C=C(\C)[C@@H]1OC(N)=O)C2=O, the pIC50 was 5.89.
